US20200025762A1, “NON-TARGET SITE RESISTANCE” (UNIVERSITY OF NEWCASTLE UPON TYNE, priority 2017, published 2020)

Columns and labels:
[1] = test system: Pendimethalin population (ROTH PEND 14) of black-grass; assay: Cross resistance test of the Pendimethalin selected line; assay type: in vivo, Alopecurus myosuroides; conditions: full or ¾ field rate; FIG. 18; not due to TSR (PCR of ACCases)
Excerpt: (§1) However, given that the two populations have no known relationship to the HS population, some of these differences could have arisen due to background genetic variation not linked to herbicide resistance. To test this, the inventors extended the proteomic comparison to two additional populations originating from the HS Rothamsted population that had undergone 5-7 years of experimentally controlled selection under a single herbicide regime, either Fenoxaprop or Pendimethalin (Supplementary Methods S1). These herbicides were used because whereas resistance to fenoxaprop can arise through both TSR- and NTSR-based mechanisms (Cocker et al., 1999), evolved tolerance to pendimethalin in black-grass is most commonly associated with enhanced detoxification (James et al., 1995). The inventors then tested these populations for cross-resistance to other herbicides at either full or ¾ field rate (Supplementary Methods S2). Despite being selected under exposure to a single herbicidal mode of action (inhibition of microtubule assembly), the Pendimethalin population was also resistant against several herbicides with ACCase mode of action (fenoxaprop, clodinafop, cycloxidim), but not ALS or cell division MOA (FIG. 18). PCR of the respective ACCases in the selected population (Marshall et al., 2013), confirmed that resistance was not due to TSR-related mechanisms.
A black-grass population originating from Rothamsted Broadbalk experimental grounds (guaranteed herbicide free) was used as the standard Herbicide Susceptible (HS) population, collected in 2009. This was used as a standard control for two “real” NTSR populations originating from wheat field sites in Essex (Peldon) and Oxford and two experimental NTSR populations that had undergone directed selection to two types of herbicidal active ingredients (Fenoxaprop and Pendimethalin). Both experimental populations originated from the Rothamsted HS population in 2004. Further details on the selection regime to create the distinct Fenoxaprop and Pendimethalin resistant populations are provided in Supplementary Methods S1/S2. […]

[2] = test system: Fenoxaprop population (ROTH FEN OUT) of black-grass; assay: Cross resistance test of the Fenoxaprop selected line; assay type: in vivo, Alopecurus myosuroides; conditions: full or ¾ field rate; FIG. 18; no evidence of TSR
Excerpt: as §1, with “mechanisms. […]” for “mechanisms.”

SMILES	herbicide resistance of the Pendimethalin population [1]	herbicide resistance of the population selected with fenoxaprop [2]
C#CCOC(=O)[C@@H](C)Oc1ccc(Oc2ncc(Cl)cc2F)cc1	resistant	–
CCCC(=NOCC)C1=C(O)CC(C2CCCSC2)CC1=O (stereo not shown) [cycloxidim]	resistant	–
CC(Oc1ccc(Oc2nc3ccc(Cl)cc3o2)cc1)C(=O)O (stereo not shown) [fenoxaprop]	resistant	only resistant toward the selecting herbicide
